In brackets after ≈: the same amount, converted by molar mass. Several values for one entry are separate records, joined by “and”; a condition that tells them apart may be missing. Equal values may be shown once.

One data set relates to Bibionidae. The conditions noted are these: chronic/long-term; duration: 28 days.
The next data set concerns Apis mellifera. The following applies: acute; duration: 48 hours; dermal; mortality.
The test system of a further data set is Daphnia magna. The following applies: chronic/long-term; duration: 21 days; reproduction.
Another data set deals with Canidae. The conditions noted are these: chronic; duration: 1 years; oral; Dog Other; histopathology: nonneoplastic.
The test system of another data set is Mus musculus. The following applies: acute; oral; M; mortality.
The next data set concerns Colinus virginianus. The following applies: for LD50: acute, oral, mortality.
The subject of the next data set is Danio rerio. The following applies: mortality.
In the next data set the test system is Folsomia candida. The conditions noted are these: chronic/long-term; duration: 28 days.

As to `CCCN(CC)CC1COC2(CCC(C(C)(C)C)CC2)O1` (stereo not drawn) [Spiroxamine], the NOEC is 5.6 mg/L in the data set with Bibionidae; over 3750 mg/kg in the data set on Tagia sp. (chronic/long-term, duration: 56 days); 0.034 mg/L in the data set with Daphnia magna; 0.002 mg/L in the data set on Danio rerio (chronic, duration: 230 days); 32 mg/kg with Folsomia candida. Besides, the LC50 in the data set on Tagia sp. (acute, duration: 14 days, mortality) was over 1000 mg/kg; with Danio rerio (acute, duration: 96 hours), 2.41 µg/mL (≈ 8.1 µM). Further, the NOAEL was 10 mg/kg-day with Rattus norvegicus (acute, neurology) and 2.5 mg/kg-day with Canidae. The LD50 is under 560 mg/kg-day in the data set on Rattus norvegicus (acute, oral, F, mortality); over 4.2 µg/piece in the data set on Apis mellifera; 460 mg/kg-day in the data set with Mus musculus; over 358 mg/kg-day in the data set on Colinus virginianus (diet); 565 mg/kg-day in the data set with Colinus virginianus; 874 mg/kg-day in the data set on Anas platyrhynchos (short-term, oral, feed, mortality). In addition, the NOEL with Rattus norvegicus (chronic) is 9.19 mg/kg-day and 22.2 mg/kg-day; in the data set on Colinus virginianus (reproduction developmental) it was 2.02 mg/kg-day; with Anas platyrhynchos (reproductive) it was 10.6 mg/kg-day.

The record behind these values is EPA's ToxValDB 9.5 (doi:10.2903/j.efsa.2010.1719).
